{
  "source": "patent US20230381312A1",
  "about": "“REDIRECTING GLUCOSE METABOLISM TO LIMIT STRESS AND IMPROVE ADOPTIVE CELL THERAPY” (University of Pittsburgh - Of the Commonwealth System of …, priority 2020, published 2023)",
  "key": {"T cells [1]": {"system": "T cells", "assay": "Mitochondrial mass by MitoTracker FM in T cells cultured in DCA", "type": "cell-based, mouse", "conditions": "after culture in 5 mM DCA, FIG. 4E"}, "T cells [2]": {"system": "T cells", "assay": "Metabolic flux rate experiments (OCR, ECAR) in T cells expanded in DCA", "type": "cell-based, mouse", "from_the_text": "The methods provided herein can include measurement of plural extracellular solutes and adjacent living cells disposed, for example, in a well of a multiwell microplate.\nThis apparatus can include an array of submersible sensors that enable rapid coordinated sensor stabilization within multiple cell-containing wells. It also includes compound storage and delivery apparatus, a pneumatic multiplexer, a structure for adding fluids to subsets or all of the multiple wells simultaneously, and a sensor structure permitting non-destructive measurement of the effect of addition of exogenous fluid to the respective wells, in combination with the ability to make and repeat measurements rapidly. Furthermore, the apparatus is designed to exploit a cartridge structure which permits repeated use of the apparatus for disparate cellular assays without requiring intermediate cleaning, and while eliminating the possibility of cross contamination between tests.\nIn use, the first step in a measurement sequence with the Seahorse XF instrument is the exchange of cell media to a type containing nearly no bicarbonate or other pH buffer in order to maximize the pH change caused by cellular proton flux.\nNext, measurement probes fitted with an optical oxygen and pH sensor were placed in each well, and were raised and lowered to mix the cell media for approximately five minutes. Third, each probe was lowered into the cell media to stop at a precise point above the cells such that approximately 25 μL of media was sequestered in a way that impeded the diffusion of oxygen molecules and protons to the larger volume of media in the well. Fourth, a series of optical measurements of the two sensors on the probe bottom (in contact with the small volume of media above the cells) were made at intervals of 8 seconds and for a period of five minutes. Typically, the dissolved oxygen level decreased by approximately 10% and the pH decreased by approximately 0.1 units. A simple linear fit to the rate of change of oxygen and pH were used to determine the OCR and ECAR for each well. […]"}, "[3]": {"system": "tumor-infiltrating T cells", "assay": "Metabolic flux rate experiment (OCR) in tumor-infiltrating T cells of melanoma patients expanded in vitro with DCA", "type": "cell-based, human", "conditions": "patient TIL expanded 10 days, FIG. 7B", "from_the_text": "Patient samples and PBMC samples were obtained from melanoma patients who were enrolled on institutional review board approved protocols. Cells from 5 different patients were used. PBMC were cryopreserved in 90% FBS plus 10% DMSO (Sigma, St. Louis. MO).\n(§1) This method included obtaining a sample of tumor from a patient suffering from metastatic melanoma, making a single cell suspension, and expanding the T cells in a cell culture medium with IL-2 present in a concentration of 6000 IU/mL+/−DCA in addition to anti-CD3/anti-CD28 antibodies for a period of 10 days.\nMetabolic flux rate experiments measuring OCR were also performed as described above."}, "[4]": {"system": "tumor-infiltrating T cells", "assay": "Signaling analysis of patient tumor-infiltrating T cells expanded with DCA (PD-1, Tim-3, IFN-gamma, TNF-alpha)", "type": "cell-based, human", "conditions": "patient TIL expanded with DCA, FIG. 7C", "experimental": "as §1\nSignaling analysis were performed as described above."}, "T cells [5]": {"system": "T cells", "assay": "T cell survival and BCL2 expression after 10 days expansion in DCA (CellTrace Violet, flow cytometry)", "type": "cell-based", "experimental": "The impact of a PDHK1 inhibitor (DCA) on T cell survival was assessed by measuring expression of anti-apoptotic BLC2. […] The T cells were activated and expanded as described in Example 1, except the labeled PBMCs were cultured in media containing IL-2 for 48 hours, and the T cells were cultured in DCA or control conditions for 10 days. Experimental expansion conditions included culturing in 5 mM DCA or 10 mM DCA. Control conditions included 5 mM of glycolysis inhibitor 2-deoxyglucose (2DG), low glucose media, or PBS. The impact of DCA on T cell survival was assayed by evaluating CellTrace® Violet dilution with flow cytometry. Fresh X-VIVO®-15-based culture medium containing IL-2 and DCA or 2DG was added to the T cell cultures every two to three days for a total of ten days to permit outgrowth and expansion of the T cells.\nA pairwise T test was performed on all day ten cultures (each concentration of DCA was compared to 0 mM DCA: *p<0.05, **p<0.01)."}, "[6]": {"system": "human anti-CD19 CAR-T cells", "assay": "Metabolic flux rate experiments in human anti-CD19 CAR-T cells generated with DCA", "type": "cell-based", "conditions": "5 mM DCA relative to hCD19 CAR, FIG. 8B", "experimental": "On the first day (“day 0”), 1) fresh or frozen peripheral blood mononuclear (PBMCs) are seeded at 10×10^6 cells/10 mL in a T25 culture flask in T Cell Growth Media (TCGM), and 2) T cell stimulation cocktail is added to a final concentration of 50 ng/mL anti-CD3, 50 ng/mL anti-CD28, and 250 IU/mL IL-2. […] On day 3, 5) lentiviral supernatant is removed, and 6) cells are fed with new media to a concentration of 3×10^5 cells/mL and 5 mM DCA. On day 4, 7) a transfer of 5×10^6 cells/condition is made to G-Rex® 6 multi-well plates, filling TCGM+5 mM DCA to a volume of 100 mL/well. […] On day 10, 9) cells are frozen down to a concentration of 100×10^6 cells/mL. Standard T Cell Growth Media includes: 930 mL X-VIVO®-15 cell medium, 50 ml Human AB Serum, 10 ml 100× GlutaMAX® supplement, and 10 mL 1M HEPES.\nFMC63 (human CD19 targeted CAR) human T cells were generated in the presence or absence of DCA. These cells were used to treat mice bearing A549 lung cancer tumors that were engineered to express hCD19.\nControls were prepared and human anti-CD19 CAR-T cells were cultured as described above. Metabolic flux rate experiments measuring OCR were also performed as described above."}, "human T cells": {"system": "human T cells", "assay": "Metabolic flux rate experiments (OCR, SRC) in human T cells expanded in DCA", "type": "cell-based", "experimental": "Metabolic flux rate experiments were performed to determine whether human T cells expanded in DCA show improved mitochondrial respiratory capacity. This example identically replicates the methods described in Example 3, except human T cells were used (derived from human healthy donor blood).\nMetabolic flux rate measurements were performed using the CellDoctor™ device and methods described above. The CellDoctor™ device was configured to measure oxygen consumption rate (OCR) and extracellular acidification rate (ECAR), corresponding to proton flux, of cells that are adherent to the bottom of 24 well microplates. As described above, flux rate experiments were performed in a human T cell line expanded in either 5 mM DCA or a control group without DCA. FIG. 6A illustrates the use of an activation step (CD3/CD28) for 48 hours and a culturing step (Ctrl/DCA) for 10 days as described in Example 2."}, "EGFR BBz CAR-T cells": {"system": "EGFR BBz CAR-T cells", "assay": "Metabolic flux rate experiments (OCR, ECAR) in EGFR BBz CAR-T cells expanded with DCA", "type": "cell-based", "conditions": "for OCR analysis (metabolic phenotype): FIG. 9A; for ECAR analysis (metabolic phenotype): FIG. 9B", "experimental": "Immunodeficient mice with a solid tumor (unmodified A549) were treated with adoptively transferred EGFR BBz CAR T cells that were expanded either in the presence or absence of DCA.\nFIGS. 9A-9C depict metabolic flux rate experiments and flow cytometry measurements, showing that DCA can metabolically enhance a solid-tumor targeted CAR.\nThe UTD control was prepared as described above. Metabolic flux rate experiments and T cell preparation were performed as described above."}, "T cells [7]": {"system": "T cells", "assay": "Cytokine synthesis on restimulation after switch to low or high nutrient conditions", "type": "cell-based", "from_the_text": "FIG. 15A is a schematic of the experimental protocol for FIGS. 15B and 15C."}, "[8]": {"conditions": "5 mM DCA relative to UTD control"}, "[9]": {"conditions": "10 mM DCA relative to UTD control"}},
  "data": [
    {"smiles": "O=C(O)C(Cl)Cl", "note": "[DCA, dichloroacetic acid]", "values": [
      {"measurement": "mitochondrial mass (MitoTracker FM)", "setting": "T cells [1]", "result": "increased"},
      {"measurement": "OCR after sequential injection of FCCP and 2DG", "setting": "T cells [2]; T cells expanded in 5 mM DCA vs control cells, FIG. 4A", "result": "OCR increased"},
      {"measurement": "increase in OCR over baseline", "setting": "T cells [2]; T cells expanded in 5 mM DCA, FIG. 4B", "result": "at least 30%"},
      {"measurement": "increase in ECAR over baseline", "setting": "T cells [2]; T cells expanded in 5 mM DCA, FIG. 4C", "result": "at least 10 mpH/min"},
      {"measurement": "OCR at serial time points (metabolic phenotype)", "setting": "[3]; 5 mM DCA relative to TIL control", "result": "superior metabolic phenotype"},
      {"measurement": "OCR at serial time points (metabolic phenotype)", "setting": "[3]; 10 mM DCA relative to TIL control", "result": "superior metabolic phenotype"},
      {"measurement": "cytokine production (IFN-gamma and TNF-alpha)", "setting": "[4]", "result": "increase in cytokine production"},
      {"measurement": "ratio of PD-1 negative T cells to PD-1 positive T cells", "setting": "[4]", "result": "increasing ratio"},
      {"measurement": "ratio of Tim-3 negative T cells to Tim-3 positive T cells", "setting": "[4]", "result": "increasing ratio"},
      {"measurement": "T cell survival", "setting": "T cells [5]; T cells cultured in 5 mM or 10 mM DCA for 10 days vs 0 mM DCA", "result": "significantly increased"},
      {"measurement": "expression of the anti-apoptotic factor BCL2", "setting": "T cells [5]; T cells cultured in DCA for 10 days, FIG. 3", "result": "enhanced expression"},
      {"measurement": "OCR at serial time points (metabolic phenotype)", "setting": "[6]", "result": "superior metabolic and therapeutic phenotype"},
      {"measurement": "Spare Respiratory Capacity (SRC, OCRmax-OCRbasal)", "setting": "human T cells; human T cells expanded in 5 mM DCA versus control, FIG. 6D", "result": "at least 60"},
      {"measurement": "increase in OCR over baseline", "setting": "human T cells; human T cells expanded in 5 mM DCA, FIG. 6C", "result": "at least 20 pmol/min"},
      {"measurement": "OCR over time", "setting": "human T cells; human T cells, CD3/CD28 48 hours then 5 mM DCA 10 days vs control, FIG. 6B", "result": "dramatic increase"},
      {"measurement": "OCR analysis (metabolic phenotype)", "setting": "EGFR BBz CAR-T cells; [8]", "result": "superior metabolic phenotype"},
      {"measurement": "ECAR analysis (metabolic phenotype)", "setting": "EGFR BBz CAR-T cells; [8]", "result": "superior metabolic phenotype"},
      {"measurement": "OCR analysis (metabolic phenotype)", "setting": "EGFR BBz CAR-T cells; [9]", "result": "superior metabolic phenotype"},
      {"measurement": "ECAR analysis (metabolic phenotype)", "setting": "EGFR BBz CAR-T cells; [9]", "result": "superior metabolic phenotype"},
      {"measurement": "cytokine synthesis when restimulated after expansion", "setting": "T cells [7]; cells cultured with DCA for 7 days, then low or high nutrient conditions for 14 hours, FIG. 15B-15C", "result": "more proficient at synthesizing cytokines"},
      {"measurement": "resistance to stress in low nutrient conditions", "setting": "T cells [7]; low nutrient: 1 mM glucose+0 mM pyruvate, 14 hours", "result": "more resistant to stress"}
    ]}
  ]
}
